In patent publication US9988407B2, “Prodrugs of prostate specific membrane antigen (PSMA) inhibitor” (THE JOHNS HOPKINS UNIVERSITY, priority 2014, dated 2018):

Experiments:
[1] = Chemical stability in HBSS buffer (pH 7.4) / simulated gastric fluid; assay type: physicochemical; details: for chemical stability: chemical hydrolysis / HBSS buffer; for Percentage remaining: HBSS, 10 μM, 37° C.
Protocol: The chemical stability of prodrugs was evaluated using simulated gastric fluid (pH 1.2) and Hanks' Balanced Salt Solution (HBSS) buffer (pH 7.4). Briefly, prodrugs were spiked (10 μM) in respective solutions and incubated at 37° C. for 1 h. At predetermined time points (0, 30 and 60 min), aliquots of 100 μL were removed and diluted with 100 μL of water. Prodrug disappearance was monitored using the developed liquid chromatography and tandem mass spectrometry (LC/MS/MS) method described below.
(§1) For LC/MS/MS, prodrugs were separated with Thermo Scientific Accela UPLC system coupled to Accela open autosampler on an Agilent C18 (100×2.1 mm id) UPLC column. The autosampler was temperature controlled and operating at 10° C. The mobile phase used for the chromatographic separation was composed of acetonitrile/water containing 0.1% formic acid and was run at a flow rate of 0.5 mL/minute for 4.5 minutes using gradient elution. The column effluent was monitored using TSQ Vantage triple-quadrupole mass spectrometric detector, equipped with an electrospray probe set in the positive ionization mode. Samples were introduced into the ionization source through a heated nebulized probe (350° C.).
(§2) For quantification of compound remaining, disappearance of prodrugs was measured from ratio of peak areas of analyte to IS. Percentage remaining was calculated in the following manner: […]

[2] = In vivo pharmacokinetics in mice, peroral, bioanalysis method 1 (total prodrug exposure); details: oral dosing; for permeability in vivo: mice
Protocol: Blood was obtained via cardiac puncture and tissue dissected at 0 min, 15 min, 30 min, 1 h, 2 h, and 4 h post dose (n=3 per time point). Single time point studies were conducted at 30 min (N=3) following dosing. Plasma was harvested from blood by centrifugation. Mean concentration-time data was used for pharmacokinetic (PK) analysis. Non-compartmental-analysis module in WinNonlin® (version 5.3) was used to assess pharmacokinetic parameters. Peak plasma concentrations (Cmax) and time to Cmax (Tmax) were the observed values. Area under the curve (AUC) was calculated by log-linear (p.o.) trapezoidal rule to the end of sample collection (AUClast) and extrapolated to infinity (AUC0-∞) by dividing the last quantifiable concentration by the terminal disposition rate constant (ke). Terminal half-life (t1/2) was estimated from first order kinetics: t1/2=0.693/ke.
Briefly, prior to extraction, frozen samples were thawed on ice. For plasma extraction, 50 μL of the calibration standards or samples were transferred into silanized microcentrifuge tubes. Sample preparation involved a single liquid extraction by addition of 300 μL of methanol as extraction solution with internal standard (i.e., 5 μM of 2-PMSA in methanol), followed by vortexing for 30 s and then centrifugation at 12000 g for 10 min. Supernatant was transferred (˜250 μL) and evaporated to dryness at 40° C. under a gentle stream of nitrogen. The residue was reconstituted with 100 μL of derivatizing agent, n-butanol with 3N HCl, and samples were vortexed. The samples were heated at ˜60 OC in a shaking water bath for 30 min. At the end of 30 min, the derivatized samples were allowed to cool at room temperature and dried again for removal of derivatizing reagent, under a gentle stream of nitrogen. The residue was reconstituted in 100 μL of 30% acetonitrile in water v/v. The samples were vortexed and centrifuged again. ˜80 μL supernatant was transferred to a 250 μL polypropylene vial sealed with a Teflon cap and a volume of 10 μL was injected onto the ultra-performance liquid chromatography (UPLC) instrument for quantitative analysis. Chromatographic analysis was performed using an Accela™ ultra high-performance system consisting of an analytical pump, and an autosampler coupled with TSQ Vantage mass spectrometer (Thermo Fisher Scientific Inc., Waltham Mass.). […] The mobile phase used was composed of 0.1% formic acid in acetonitrile and 0.1% formic acid in H2O with gradient elution, starting with 20% (organic) linearly increasing to 65% up to 2.5 min, maintaining at 65% (2.5-3.5 min) and reequilibrating to 30% by 5 min. The total run time for each analyte was 5.0 min.

[3] = Metabolic stability in mouse plasma; assay type: in vitro ADME; details: 10 μM, 37° C.
Protocol: (§3) For metabolic stability, plasma (mouse, dog, monkey and human) and liver microsomes (mouse, dog, monkey and human) were used. For stability, prodrugs (10 μM) were spiked in each matrix and incubated in an orbital shaker at 37° C. At predetermined times (0, 30 and 60 min), 100 μL aliquots of the mixture in triplicate were removed and the reaction quenched by addition of three times the volume of ice cold acetonitrile spiked with the internal standard (losartan 5 μM). The samples were vortexed for 30 s and centrifuged 12000 g for 10 min. 50 μL supernatant diluted with 50 μL water was transferred to a 250 μL polypropylene vial sealed with a Teflon cap. Prodrug disappearance was monitored over time using a liquid chromatography and tandem mass spectrometry (LC/MS/MS) method as described below.
as §1, §2

[4] = Metabolic stability in mouse liver microsomes; assay type: in vitro ADME; details: 10 μM, 37° C.
Protocol: as §3, §1, §2

[5] = Metabolic stability in human plasma; assay type: in vitro ADME; details: 10 μM, 37° C.
Protocol: as §3, §1, §2

[6] = Metabolic stability in human liver microsomes; assay type: in vitro ADME; details: 10 μM, 37° C.
Protocol: as §3, §1, §2

[7] = Metabolic stability in mouse liver S9; assay type: in vitro ADME; details: Mouse S9, 10 μM, 37° C.
[8] = In vitro metabolic stability screen in plasma and liver subcellular fractions (results in words); assay type: in vitro ADME; details: 60 min incubation
Protocol: as §3, §1
For quantification of compound remaining, disappearance of prodrugs was measured from ratio of peak areas of analyte to IS. Percentage remaining was calculated in the following manner:
In general, the prodrugs were screened by an in vitro metabolic stability screen, and if positive, followed by an in vivo single time point pharmacokinetic study, and in select cases, an in vivo full time course pharmacokinetic study (FIG. 3). In this Example, the four acidic functional groups in 2-PMPA were systematically capped. The carboxylic acids were first masked with simple alkyl esters (Compounds 1, 2, and 3). In vitro chemical and metabolic stability of the prodrugs then were conducted, following 60 min incubation in plasma stability screens for prodrugs.

| chemical stability [1] | Percentage remaining ([3]; 0 min) | Percentage remaining ([3]; 30 min) | Percentage remaining ([3]; 60 min) | Percentage remaining ([4]; 0 min) | Percentage remaining ([4]; 30 min) | Percentage remaining ([4]; 60 min) | Compound | further results |
| --- | --- | --- | --- | --- | --- | --- | --- | --- |
| sufficient chemical stability | – | – | – | – | – | – | CCCCCCCCCCCCCCCCOCCCOP(=O)(CC(CCC(=O)O)C(=O)O)OCCCOCCCCCCCCCCCCCCCC (stereo not shown) [Compound 12, 2-((Bis(3-(hexadecyloxy)propoxy)phosphoryl)methyl)pentanedioic acid] | – |
| – | – | – | – | – | – | – | CCCCCCCCCCOP(=O)(CC(CCC(=O)O)C(=O)OC)OCCCCCCCCCC (stereo not shown) [Compound 22, 4-{[Bis(decyloxy)phosphoryl]methyl}-5-methoxy-5-oxopentanoic acid] | permeability in vivo [2]: did not show a high permeability in vivo |
| – | – | – | – | – | – | – | COC(=O)C(CCC(=O)O)CP(=O)(O)O (stereo not shown) [Compound 9] | oral availability of prodrug [2]: good oral availability |
| – | 100% | 0% | 0% | 100% | 49% | 22% | CC(C)OC(=O)OCOP(=O)(CC(CCC(=O)O)C(=O)OCC(=O)N(C)C)OCOC(=O)OC(C)C (stereo not shown) [Compound 25] | Percentage remaining ([5]; 0 min): 100%; Percentage remaining ([5]; 30 min): 109%; Percentage remaining ([5]; 60 min): 76%; Percentage remaining ([6]; 0 min): 100%; Percentage remaining ([6]; 30 min): 80%; Percentage remaining ([6]; 60 min): 61% |
| fall apart easily even in HBSS buffer | 100% | 0% | 0% | 100% | 2% | 0% | COC(=O)CCC(CP(=O)(OCOC(=O)C(C)(C)C)OCOC(=O)C(C)(C)C)C(=O)OC (stereo not shown) [Compound 14] | Percentage remaining ([1]; 0 min): 100%; Percentage remaining ([1]; 30 min): 46%; Percentage remaining ([1]; 60 min): 21%; Percentage remaining ([7]; 0 min): 100%; Percentage remaining ([7]; 30 min): 1%; Percentage remaining ([7]; 60 min): 0%; permeability in vivo [2]: most permeable |
| – | – | – | – | – | – | – | CCCCOC(=O)c1ccccc1OP(=O)(CC(CCC(=O)O)C(=O)OC)Oc1ccccc1C(=O)OCCCC (stereo not shown) [Compound 21, 4-({Bis[2-(butoxycarbonyl)phenoxy]phosphoryl}methyl)-5-methoxy-5-oxopentanoic acid] | permeability in vivo [2]: did not show a high permeability in vivo |
| – | 100% | 3% | 1% | 100% | 86% | 68% | CC(C)OC(=O)OC(C)OP(=O)(CC(CCC(=O)O)C(=O)OCC(=O)N(C)C)OC(C)OC(=O)OC(C)C (stereo not shown) [Compound 26] | Percentage remaining ([5]; 0 min): 100%; Percentage remaining ([5]; 30 min): 98%; Percentage remaining ([5]; 60 min): 92%; Percentage remaining ([6]; 0 min): 100%; Percentage remaining ([6]; 30 min): 92%; Percentage remaining ([6]; 60 min): 81% |
| chemical instability | – | – | – | – | – | – | CC(C)(C)C(=O)OCOP(=O)(CC(CCC(=O)O)C(=O)O)OCOC(=O)C(C)(C)C (stereo not shown) [Compound 5] | – |
| sufficient chemical stability | – | – | – | – | – | – | COC(=O)CCC(CP(=O)(OCOC(=O)C(C)(C)C)OCOC(=O)C(C)(C)C)C(=O)OCOC(=O)C(C)(C)C (stereo not shown) [Compound 11] | – |
| – | – | – | – | – | – | – | COC(=O)C(CCC(=O)O)CP(=O)(OCOC(=O)C(C)(C)C)OCOC(=O)C(C)(C)C (stereo not shown) [Compound 8, 4-({Bis[(pivaloyloxy)methoxy]phosphoryl}methyl)-5-methoxy-5-oxopentanoic acid] | oral availability of prodrug [2]: good oral availability |
| stable in HBSS buffer | 100% | 2% | 1% | 100% | 2% | 0.1% | CCOC(=O)[C@H](Cc1ccccc1)NP(=O)(CC(CCC(=O)OC)C(=O)OC)N[C@@H](Cc1ccccc1)C(=O)OCC (stereo partly drawn) [Compound 17, Dimethyl 2-((bis(((S)-1-ethoxy-1-oxo-3-phenylpropan-2-yl)amino)phosphoryl)methyl)pentanedioate] | Percentage remaining ([1]; 0 min): 100%; Percentage remaining ([1]; 30 min): 93%; Percentage remaining ([1]; 60 min): 93%; Percentage remaining ([7]; 0 min): 100%; Percentage remaining ([7]; 30 min): 0%; Percentage remaining ([7]; 60 min): 0.1% |
| – | 100% | 2% | 1% | 100% | 99% | 100% | CCOCCOCCOCCOCCOCCOCCOP(=O)(CC(CCC(=O)OC)C(=O)OC)OCCOCCOCCOCCOCCOCCOCC (stereo not shown) [Compound 13, Dimethyl 2-((bis((3,6,9,12,15,18-hexaoxaicosyl)oxy)phosphoryl)methyl)pentanedioate] | Percentage remaining ([1]; 0 min): 100%; Percentage remaining ([1]; 30 min): 99%; Percentage remaining ([1]; 60 min): 101%; Percentage remaining ([7]; 0 min): 100%; Percentage remaining ([7]; 30 min): 106%; Percentage remaining ([7]; 60 min): 100%; in vitro metabolic stability [8]: too stable in some of the samples |
| chemical instability | – | – | – | – | – | – | CC(C)OC(=O)OCOP(=O)(CC(CCC(=O)O)C(=O)O)OCOC(=O)OC(C)C (stereo not shown) [Compound 4] | – |

| Compound | chemical stability [1] | Percentage remaining ([3]; 0 min) | Percentage remaining ([3]; 30 min) | Percentage remaining ([3]; 60 min) | Percentage remaining ([4]; 0 min) | Percentage remaining ([4]; 30 min) | Percentage remaining ([4]; 60 min) | further results |
| --- | --- | --- | --- | --- | --- | --- | --- | --- |
| CCCCOC(=O)c1ccccc1OP(=O)(CC(CCC(=O)OC)C(=O)OC)Oc1ccccc1C(=O)OCCCC (stereo not shown) [Compound 16, Dimethyl 2-({bis[2-(butoxycarbonyl)phenoxy]phosphoryl}methyl)pentanedioate] | stable in HBSS buffer | 100% | 3% | 1% | 100% | 3% | 2% | Percentage remaining ([1]; 0 min): 100%; Percentage remaining ([1]; 30 min): 100%; Percentage remaining ([1]; 60 min): 95%; Percentage remaining ([7]; 0 min): 100%; Percentage remaining ([7]; 30 min): 1%; Percentage remaining ([7]; 60 min): 2% |
